The test system of one assay is Ramos RA1 B cells. Nature of the assay: Ramos FLIPR Assay (intracellular calcium). In kind it is cell-based. The settings on record: Homo sapiens; Ramos RA1 B cells stimulated with F(ab')2 anti-IgM/IgG, peak intracellular calcium; read-out: Human Ramos Cell FLIPR (IC50 uM). The procedure:
Ramos RA1 B cells (ATCC CRL-1596) at a density of 2×10^6 cells/ml in RPMI minus phenol red (Invitrogen 11835-030) and 50 mM HEPES (Invitrogen 15630-130) containing 0.1% BSA (Sigma A8577) were added to one half volume of calcium loading buffer (BD bulk kit for probenecid sensitive assays, # 640177) and incubated at room temperature in the dark for 1 hour. Dye-loaded cells were pelleted (Beckmann GS-CKR, 1200 rpm, RT, 5 minutes) and resuspended in RT RPMI minus phenol red with 50 mM HEPES and 10% FBS to a density of 1×10^6 cells/ml. 150 μl aliquots (150,000/well) were plated into 96 well poly-D-lysine coated assay plates (BD 35 4640) and briefly centrifuged (Beckmann GS-CKR 800 rpm, 5 minutes, without brake). 50 μl compound dilutions in 0.4% DMSO/RPMI minus phenol red+50 mM HEPES+10% FBS were added to the wells and the plate was incubated at RT in the dark for 1 hour. Assay plate was briefly centrifuged as above prior to measuring calcium levels.
Using the FLIPR1 (Molecular devices), cells were stimulated by adding 50 μl 200 μg/ml F(ab′)2 anti-IgM/IgG (Jackson ImmunoResearch 109-006-127) diluted in 1X HBSS (Invitrogen 14025-076), 50 mM HEPES, 0.1% BSA. Changes in intracellular calcium concentrations were measured for 180 seconds and percent inhibition was determined relative to peak calcium levels seen in the presence of F(ab′)2 anti-IgM/IgG only.
In general terms: Calcium assays in cells follow changes in intracellular calcium, usually with a dye or a luminescent sensor.

A further assay has as its target T1, human recombinant Btk (Homo sapiens, UniProt Q06187).
T1 construct: purchased Invitrogen Corporation
Nature of the assay: Human Recombinant Btk Enzyme Assay. The settings on record: human recombinant Btk 1 nM, ATP 20 μM, 60 min room temperature, Caliper LabChip. In kind it is biochemical. As to the method:
Human Recombinant Btk Enzyme Assay
To V-bottom 384-well plates were added test compounds, human recombinant Btk (1 nM, Invitrogen Corporation), fluoresceinated peptide (1.5 μM), ATP (20 μM), and assay buffer (20 mM HEPES pH 7.4, 10 mM MgCl2, 0.015% Brij35 and 4 mM DTT in 1.6% DMSO), with a final volume of 30 μL. After incubating at room temperature for 60 min, the reaction was terminated by adding 45 μl of 35 mM EDTA to each sample. The reaction mixture was analyzed on the Caliper LabChip 3000 (Caliper, Hopkinton, Mass.) by electrophoretic separation of the fluorescent substrate and phosphorylated product. Inhibition data were calculated by comparison to no enzyme control reactions for 100% inhibition and no inhibitor controls for 0% inhibition. Dose response curves were generated to determine the concentration required inhibiting 50% of kinase activity (IC50). Compounds were dissolved at 10 mM in dimethylsulfoxide (DMSO) and evaluated at eleven concentrations.
Using this assay, the following IC50 values derived by non-linear regression analysis were determined and compared to those values of certain compounds in US 2007/0078136 and US 2008/0045536.

In a further assay the test system is Human tonsillar B cells. Nature of the assay: Human Tonsillar B Cell Proliferation Assay. Type of assay: cell-based. To be noted: tonsillar B cells stimulated with anti Human IgG+IgM F(ab')2 40 μg/ml, 72 hours, 3[H]-thymidine. The text has this:
Human Tonsillar B Cell Proliferation Assay
Tonsils were excised from patients undergoing routine tonsillectomy. Tonsil tissue was minced, mashed through screens and mononuclear cells were isolated on ficoll density gradients (Lymphocyte Separation Media; Mediatech Inc., Herndon, Va.). T cells were depleted from mononuclear cells by rosetting with sheep red blood cells (SRBC, Colorado Serum Company; Denver, Colo.). Tonsillar B cells prepared by this method were routinely >95% CD19^+ as measured by FACS analysis. B cells (1×10^5 cells per well) were added to serial dilutions of compounds in triplicate in 96-well flat-bottom plates in RPMI 1640, (Invitrogen, Grand Island, N.Y.), supplemented with 10% heat-inactivated fetal calf serum (FCS, Summit Biotechnology, Fort Collins, Colo.), and containing antibiotic/antimycotic (Invitrogen, 1:100 dilution) and gentamicin (Invitrogen, 5 μg/ml). Cells were stimulated with 40 μg/ml AffinPure F(ab′)2 Fragment Goat anti Human IgG+IgM (Jackson Immunoresearch, West Grove, Pa.) in a total volume of 0.2 ml. Cultures were incubated for 72 hours, and pulsed for the last 6 hours with one μCi/well of ^3[H]-thymidine (PerkinElmer, Boston, Mass.) prior to harvest on a Packard cell harvester (PerkinElmer), and counted by liquid scintillation on a Packard TopCount NXT (PerkinElmer).

The test system of the next assay is Mouse splenic B cells. Nature of the assay: Mouse Splenic B Cell Proliferation Assay. Type of assay: cell-based. The settings on record: Balb/c splenic B cells stimulated with anti-mouse IgG IgM F(ab')2 10 μg/ml, 72 hours, 3[H]-thymidine. The procedure:
Mouse Splenic B Cell Proliferation Assay
Spleens from Balb/c mice (<12 weeks old) were mashed through screens and red blood cells were removed from splenocytes with RBC lysing buffer (Sigma-Aldrich Chemical Co, —St. Louis, Mo.). T cells were depleted by incubation on nylon wool columns (Wako, Richmond, Va.). Resulting splenic B cells prepared this way were routinely >90% CD19^+ as measured by FACS analysis. B cells (1×10^5 cells per well) were added to serial dilutions of compounds in triplicate in 96-well flat-bottom plates in RPMI 1640 (Invitrogen, Grand Island, N.Y.), supplemented with 10% heat-inactivated fetal calf serum (FCS, Summit Biotechnology, Fort Collins, Colo.), containing 1% L-glutamine (Invitrogen), […] gentamicin (Invitrogen) and 5×10^−5M β-mercaptoethanol (Sigma-Aldrich). Cells were stimulated with 10 μg/ml of Affinipure F(ab′)2 fragment goat anti-mouse IgG IgM (Jackson Immunoresearch, West Grove, Pa.). Cultures were incubated for 72 hours, and pulsed for the last 6 hours with one μCi/well of ^3[H]-thymidine (PerkinElmer, Boston, Mass.) prior to harvest on a Packard cell harvester (PerkinElmer), and counted by liquid scintillation on a Packard TopCount NXT (PerkinElmer).

T1 sequence (Q06187 whole entry): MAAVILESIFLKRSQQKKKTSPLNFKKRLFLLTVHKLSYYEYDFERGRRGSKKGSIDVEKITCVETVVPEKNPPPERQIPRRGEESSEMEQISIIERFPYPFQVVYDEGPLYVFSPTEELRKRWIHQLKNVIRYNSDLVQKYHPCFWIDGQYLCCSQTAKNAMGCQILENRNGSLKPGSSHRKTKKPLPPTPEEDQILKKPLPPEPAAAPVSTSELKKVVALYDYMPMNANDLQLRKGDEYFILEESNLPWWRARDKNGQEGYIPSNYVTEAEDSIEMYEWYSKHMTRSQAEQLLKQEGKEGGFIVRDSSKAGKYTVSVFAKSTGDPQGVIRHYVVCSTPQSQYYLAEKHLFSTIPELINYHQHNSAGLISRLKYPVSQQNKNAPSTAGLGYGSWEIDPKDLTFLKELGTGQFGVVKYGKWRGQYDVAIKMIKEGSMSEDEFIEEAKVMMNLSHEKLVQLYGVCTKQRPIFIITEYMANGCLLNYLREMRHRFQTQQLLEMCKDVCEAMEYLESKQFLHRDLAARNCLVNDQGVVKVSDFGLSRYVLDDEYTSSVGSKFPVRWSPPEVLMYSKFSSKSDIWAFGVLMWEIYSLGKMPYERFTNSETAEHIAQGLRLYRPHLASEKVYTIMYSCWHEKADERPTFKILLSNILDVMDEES

The IC50 is the concentration that gives 50% inhibition. In the case of `CC(C)(C)c1ccc(C(=O)N[C@@H]2CCCN(c3nc(Nc4ccc(C(=O)N5CCOCC5)cc4)c4nccn4n3)C2)cc1` [Example 1, (R)-4-tert-Butyl-N-(1-(4-(4-(morpholine-4-carbonyl)phenylamino)imidazo[1,2-f][1,2,4]triazin-2-yl)piperidin-3-yl)benzamide], the IC50 with Ramos RA1 B cells worked out at 0.26 µM. For the compound `CC(C)(C)c1ccc(C(=O)N[C@H]2CCCN(c3nc(Nc4ccc(C(=O)N5CCOCC5)cc4)c4nccn4n3)C2)cc1` [Example 2, (S)-4-tert-Butyl-N-(1-(4-(4-(morpholine-4-carbonyl)phenylamino)imidazo[1,2-f][1,2,4]triazin-2-yl)piperidin-3-yl)benzamide], the 50% inhibitory concentration (IC50) is 0.8 µM on human recombinant Btk and 4.08 µM with Ramos RA1 B cells.

For the compound `CC(C)(C)c1ccc(C(=O)N[C@@H]2CCCN(c3nc(Nc4ccc(C(=O)N[C@@H]5CCNC5)cc4)c4nccn4n3)C2)cc1` [Example 9, 4-tert-Butyl-N—((R)-1-(4-(4-((S)-pyrrolidin-3-ylcarbamoyl)phenylamino)imidazo[1,2-f][1,2,4]triazin-2-yl)piperidin-3-yl)benzamide], the IC50 stood at 1.91 µM with Human tonsillar B cells and 1.29 µM with Mouse splenic B cells. As for `CC(C)(C)c1ccc(C(=O)N[C@@H]2CCCN(c3nc(Nc4ccc(C(=O)N5CCNCC5)cc4)c4nccn4n3)C2)cc1` [Example 11, (R)-4-tert-Butyl-N-(1-(4-(4-(piperazine-1-carbonyl)phenylamino)imidazo[1,2-f][1,2,4]triazin-2-yl)piperidin-3-yl)benzamide], the IC50 on human recombinant Btk worked out at 0.013 µM; in the assay on Ramos RA1 B cells it was 0.028 µM. For `CC(C)(C)c1ccc(C(=O)N[C@@H]2CCCN(c3nc(Nc4ccc(C(=O)N5CCOCC5)cc4)c4ncc(N)n4n3)C2)cc1` [Example 26, (R)—N-(1-(7-Amino-4-(4-(morpholine-4-carbonyl)phenylamino)imidazo[1,2-f][1,2,4]triazin-2-yl)piperidin-3-yl)-4-tert-butylbenzamide], the IC50 with Ramos RA1 B cells is 0.015 µM; in the assay on Mouse splenic B cells, 0.08 µM.

As to `NCc1cnc2c(Nc3ccc(C(=O)N4CCOCC4)cc3)nc(N3CCC[C@@H](NC(=O)c4cc5ccccc5[nH]4)C3)nn12` [Example 35, (R)—N-(1-(7-(Aminomethyl)-4-(4-(morpholine-4-carbonyl)phenylamino)imidazo[1,2-f][1,2,4]triazin-2-yl)piperidin-3-yl)-1H-indole-2-carboxamide], the IC50 in the assay with Ramos RA1 B cells was determined as 1.24 µM. Compound `O=C(N[C@@H]1CCCN(c2nc(Nc3ccc(C(=O)N4CCOCC4)cc3)c3nccn3n2)C1)c1ccccc1` [Example 36, (R)—N-(1-(4-(4-(morpholine-4-carbonyl)phenylamino)imidazo[1,2-f][1,2,4]triazin-2-yl)piperidin-3-yl)benzamide] yielded an IC50 in the assay with Human tonsillar B cells of 0.45 µM.

The record behind these values is patent US8188272B2, “Fused heterocyclic compounds useful as kinase modulators” (Bristol-Myers Squibb Company, priority 2007, dated 2012).
